Measured values reported in article PMC7503500, “A Structure-Activity Relationship Comparison of Imidazodiazepines Binding at Kappa, Mu, and Delta Opioid Receptors and the GABAA Receptor” (Molecules, 2020).
Where two headings read alike, the source gives them in different places.

Assays:
[1] = test system: synaptic benzodiazepine-sensitive receptors (BZR), GABAAR; experiment: 3H-flunitrazepam binding, rat brain homogenate; conditions: for BZR % (percent inhibition): at 10,000 nM; for Ki: read-out: BZR (Ki)
[2] = target: κ opioid receptor (KOR) (Homo sapiens, UniProt P41145); experiment: Radioligand competition binding, KOR ([3H]-U69593), HEK293 cell homogenates; conditions: for inhibition at 10 µM: read-out: KOR % (percent inhibition), at 10,000 nM; for inhibition at 10 µM / KOR % (percent inhibition): [3H]-U69593; for KOR % (percent inhibition): at 10,000 nM
[3] = target: δ opioid receptor (DOR) (Homo sapiens, UniProt P41143); experiment: Radioligand competition binding, DOR ([3H]-DADLE), HEK293 cell homogenates; conditions: for inhibition at 10 µM: read-out: DOR % (percent inhibition), at 10,000 nM; for DOR % (percent inhibition): at 10,000 nM
[4] = target: µ opioid receptor (MOR) (Homo sapiens, UniProt P35372); experiment: Radioligand competition binding, MOR ([3H]-DAMGO), HEK293 cell homogenates; conditions: [3H]-DAMGO; for inhibition at 10 µM: read-out: MOR % (percent inhibition), at 10,000 nM; for MOR % (percent inhibition): at 10,000 nM
[5] = read-out: KOR (Ki), [3H]-U69593, HEK293 homogenates

SMILES | BZR % (percent inhibition) [1] [%] | Ki [1] [nM] | inhibition at 10 µM [2] [%] | inhibition at 10 µM [3] [%] | inhibition at 10 µM [4] [%] | Ki [2] [nM] | MOR % (percent inhibition) [4] [%] | KOR % (percent inhibition) [2] [%] | Ki [2, 5] [nM] | DOR % (percent inhibition) [3] [%] | KOR affinity (in words) ([2]; screening at 10,000 nM)
C#Cc1ccc2c(c1)C(c1ccccn1)=N[C@H](C)c1c(C(=O)NC)ncn1-2 [GL-II-31] | 72 | 1700 | 23 | 3 | 17 | – | – | – | – | – | –
C#Cc1ccc2c(c1)C(c1ccccn1)=N[C@H](C)c1c(C(=O)OC)ncn1-2 [GL-II-32] | 63 | 1430 | 35 | 0 | 32 | – | – | – | – | – | –
C#Cc1ccc2c(c1)C(c1ccccc1F)=N[C@@H](C)c1c(C(N)=O)ncn1-2 [MP-III-018.B] | 97 | 17 | 51 | 10 | 2 | 2780 | – | – | – | – | –
C[C@H]1N=C(c2ccccc2F)c2cc(C3CC3)ccc2-n2cnc(C(=O)N(C)C)c21 [GL-III-70] | 100 | 3400 | 68 | 50 | 0 | 800 | – | – | – | – | –
C[C@H]1N=C(c2ccccc2F)c2cc(Cl)ccc2-n2cnc(C(=O)O)c21 [GL-III-54] | 100 | 42 | 22 | 0 | 0 | – | – | – | – | – | –
C#Cc1ccc2c(c1)C(c1ccccc1F)=N[C@H](C)c1c(C(=O)NCC)ncn1-2 [GL-II-74] | 84 | 68 | 86 | 0 | 10 | 194 | – | – | – | – | –
C#Cc1ccc2c(c1)C(c1ccccc1F)=N[C@H](C)c1c(C(=O)O)ncn1-2 [SH-053-2′F-R-CH3-Acid] | 93 | 37 | 16 | 0 | 0 | – | – | – | – | – | –
C#Cc1ccc2c(c1)C(c1ccccc1F)=N[C@H](C)c1c(C(=O)N3CCCC3)ncn1-2 [GL-II-76] | 43 | – | 80 | 0 | 0 | 371 | – | – | – | – | –
C#Cc1ccc2c(c1)C(c1ccccc1F)=N[C@H](C)c1c(C(=O)N(C)C)ncn1-2 [GL-II-73] | 75 | 506 | 58 | 0 | 6 | 1190 | – | – | – | – | –
CCOC(=O)c1ncn2c1[C@@H](C)N=C(c1ccccc1F)c1cc(Br)ccc1-2 [SH-I-047] | 84 | 238 | 82 | 0 | – | – | 16 | – | – | – | –
C#Cc1ccc2c(c1)C(c1ccccc1F)=N[C@H](C)c1c(-c3cnco3)ncn1-2 [GL-III-73] | 65 | 602 | – | – | – | – | 12 | 74 | 449 | 4 | –
C#Cc1ccc2c(c1)C(c1ccccc1F)=N[C@@H](C)c1c(-c3nc(CC)no3)ncn1-2 [GL-I-66] | 80 | 654 | – | – | – | – | 28 | 92 | 212 | 2 | –
C#Cc1ccc2c(c1)C(c1ccccc1F)=N[C@@H](C)c1c(C(=O)OC(C)C)ncn1-2 [GL-I-31] | 97 | 245 | 94 | 8 | 32 | 65 | – | – | – | – | –
Cc1ncoc1-c1ncn2c1CN=C(c1ccccn1)c1cc(Br)ccc1-2 [KRM-II-81] | 86 | 294 | 46 | 15 | 7 | – | – | – | – | – | insignificant KOR affinity
C[C@H]1N=C(c2ccccn2)c2cc(Br)ccc2-n2cnc(C(=O)O)c21 [GL-II-51] | 84 | 181 | 11 | 0 | 0 | – | – | – | – | – | –
C#Cc1ccc2c(c1)C(c1ccccc1F)=N[C@@H](C)c1c(-c3nc(C)no3)ncn1-2 [GL-I-65] | 79 | 1150 | – | – | – | – | 2 | 88 | 222 | 7 | –
Fc1ccccc1C1=NCc2c(-c3cnco3)ncn2-c2ccc(Br)cc21 [SH-I-85] | 99 | 11 | 91 | 33 | 16 | 162 | – | – | – | – | –
